Assay [1] has as its target Human GLP-1R-GFP (human) (UniProt P43220).
Assay [2] deals with Human GIPR-turbo GFP (human) (UniProt P48546).
Assay [3] shares this target. The source holds these as a separate data set.
The target in assay [4] is Human GLP-1R-GFP (human) (UniProt P43220). The source holds these as a separate data set.
The target of assay [5] is T1, human GLP-1R (Homo sapiens, UniProt P43220).
T1 construct: host or cells: HEK293T
As to the kind of experiment: Gαs (mini-G) recruitment BRET assay, GLP-1R. Type of assay: cell-based. As to conditions: HEK293T, GLP-1R-GFP + NLuc-mini-G, +iAUC 60 min.

In assay [6] the target is T1, human GLP-1R. As to the kind of experiment: cAMP assay (CAMYEL BRET sensor), GLP-1R. Type of assay: cell-based. As to conditions: CAMYEL sensor, no IBMX, mean ± SEM, at least 3 experiments, SEM. The method, then:
(§1) The cells were seeded (700,000 cells/well) in 6-well plates and incubated to ∼70% confluency in complete media supplemented with 10% FBS and 1% Pen-Strep. […] Baseline measurements were taken after 5 min of incubation with coelenterazine-h or NanoGlo. The cells were then treated with a vehicle or the respective agonists. […] The temporal data of the vehicle-corrected agonist measurement was then normalized to the baseline reading of the same well. The first BRET reading following treatment with agonist/vehicle was the subsequent measurement after the zero time point. Positive or negative incremental areas under the curves (+iAUC/-iAUC) were calculated where noted. Each experiment was independently performed at least three times, with at least two technical replicates for each group.
(§2) CAMYEL, a cAMP sensor using YFP-Epac-RLuc was utilized to quantify cAMP accumulation with the temporal resolution. Then, 500 ng of CAMYEL DNA was co-transfected with 500 ng of DNA of untagged GLP-1R or GIPR per well in a 6-well plate. The experiments were performed in the absence of 3-isobutyl-1-methylxanthine (IBMX).
(§3) Data are represented as means ± S.E.M. Each experiment was independently conducted at least three times, each with at least two technical replicates. […] Dose responses were fitted using non-linear regression. pEC50 and EC50 values were calculated using GraphPad Prism 8.0 (GraphPad, San Diego, CA, USA). Statistical analyses were calculated in GraphPad 8.0 using one-way analysis of variance (ANOVA) and corrected with Tukey's or Bonferroni's multiple comparison test. Differences are considered significant with an adjusted p value < 0.05.

In assay [7] the target is T1, human GLP-1R. The assay is described as follows: β-arrestin 2 recruitment BRET assay, GLP-1R. Type of assay: cell-based. As to conditions: HEK293T, GLP-1R-GFP + β-arrestin2-RLUC8, BRET, +iAUC 30 min. The method, then: as §1
(§4) Co-localization of β-arrestin1/2-RLUC8 with GLP-1R-GFP or GIPR-GFP was assessed.
(§5) Data are represented as means ± S.E.M. Each experiment was independently conducted at least three times, each with at least two technical replicates. […] Dose responses were fitted using non-linear regression. pEC50 and EC50 values were calculated using GraphPad Prism 8.0 (GraphPad, San Diego, CA, USA). Statistical analyses were calculated in GraphPad 8.0 using one-way analysis of variance (ANOVA) and corrected with Tukey's or Bonferroni's multiple comparison test. […]

Assay [8] has as its target T2, human GIPR (Homo sapiens, UniProt P48546).
T2 sequence (P48546 22-466): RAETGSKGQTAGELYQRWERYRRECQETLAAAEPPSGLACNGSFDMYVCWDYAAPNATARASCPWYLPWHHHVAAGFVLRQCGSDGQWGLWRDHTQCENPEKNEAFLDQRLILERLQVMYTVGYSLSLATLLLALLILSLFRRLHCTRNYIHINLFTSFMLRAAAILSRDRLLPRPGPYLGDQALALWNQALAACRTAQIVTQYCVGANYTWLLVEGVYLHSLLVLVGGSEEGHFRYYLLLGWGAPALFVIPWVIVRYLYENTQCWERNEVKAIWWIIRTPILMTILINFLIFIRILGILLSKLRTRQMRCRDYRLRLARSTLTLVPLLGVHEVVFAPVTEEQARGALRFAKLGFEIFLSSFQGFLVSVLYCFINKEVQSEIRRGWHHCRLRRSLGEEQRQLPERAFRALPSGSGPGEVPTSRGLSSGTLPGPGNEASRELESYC
As to the kind of experiment: β-arrestin 2 recruitment BRET assay, GIPR. The conditions noted are these: HEK293T, GIPR-GFP + β-arrestin2-RLUC8, BRET, +iAUC 30 min. The assay is classed as cell-based. The method, then: as §1, §4, §3

The target of assay [9] is T1, human GLP-1R. The assay is described as follows: β-arrestin 1 recruitment BRET assay, GLP-1R. Type of assay: cell-based. As to conditions: HEK293T, GLP-1R-GFP + β-arrestin1-RLUC8, BRET, +iAUC 30 min. On the procedure: as §1, §4, §5
The target in assay [10] is T2, human GIPR. As to the kind of experiment: cAMP assay (CAMYEL BRET sensor), GIPR. The assay is classed as cell-based. The conditions noted are these: HEK293T, GIPR, CAMYEL sensor, no IBMX, +iAUC 25 min. The method, then: as §1, §2, §3
Assay [11] concerns the target T2, human GIPR. The assay is described as follows: Gαq (mini-G) recruitment BRET assay, GIPR. Type of assay: cell-based. The conditions noted are these: HEK293T, GIPR-GFP + NLuc-mini-G, +iAUC 60 min.
In assay [12] the target is T2, human GIPR. The assay is described as follows: GPCR internalization assay (loss of BRET with Venus-KRAS), GIPR. Type of assay: cell-based. The conditions noted are these: HEK293T, hGIPR-Rluc8 + Venus-KRAS, iAUC 20 min.
Assay [13] addresses T1, human GLP-1R. The assay is described as follows: GPCR internalization assay (loss of BRET with Venus-KRAS), GLP-1R. Type of assay: cell-based. The conditions noted are these: HEK293T, hGLP-1R-Rluc8 + Venus-KRAS, iAUC 60 min.
For assay [14], the target named is T2, human GIPR. As to the kind of experiment: Gαs (mini-G) recruitment BRET assay, GIPR. The assay is classed as cell-based. The conditions noted are these: HEK293T, GIPR-GFP + NLuc-mini-G, +iAUC 60 min.
Assay [15] concerns the target T2, human GIPR. The assay is described as follows: β-arrestin 1 recruitment BRET assay, GIPR. The assay is classed as cell-based. As to conditions: HEK293T, GIPR-GFP + β-arrestin1-RLUC8, BRET, +iAUC 30 min. The method, then:
as §1, §4, §3

For assay [16], the target named is T1, human GLP-1R. As to the kind of experiment: Gαq (mini-G) recruitment BRET assay, GLP-1R. Type of assay: cell-based. As to conditions: HEK293T, GLP-1R-GFP + NLuc-mini-G, +iAUC 60 min.
Where [17] appears, read: HEK-293T, mean ± SEM, at least 3 experiments, SEM.
The mark [18] stands for this setting: read-out: β-arr2 Recruitment EC50.
The mark [19] stands for this setting: read-out: β-arr1 Recruitment EC50.
Where [20] appears, read: read-out: Receptor Internalization EC50.

T1 sequence (P43220 24-463): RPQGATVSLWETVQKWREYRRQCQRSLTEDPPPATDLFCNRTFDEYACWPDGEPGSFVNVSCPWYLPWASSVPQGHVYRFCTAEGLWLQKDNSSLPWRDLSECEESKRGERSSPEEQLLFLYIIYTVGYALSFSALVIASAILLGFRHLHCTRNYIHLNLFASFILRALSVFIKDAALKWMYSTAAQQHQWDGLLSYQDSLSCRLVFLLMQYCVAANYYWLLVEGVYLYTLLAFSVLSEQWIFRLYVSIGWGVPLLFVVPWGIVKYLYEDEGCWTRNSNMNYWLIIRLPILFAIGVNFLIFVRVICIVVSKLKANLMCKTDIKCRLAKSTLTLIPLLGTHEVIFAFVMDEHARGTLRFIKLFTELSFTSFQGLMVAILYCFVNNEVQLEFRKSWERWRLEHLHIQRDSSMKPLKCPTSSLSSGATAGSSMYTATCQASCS
Chain of Human GLP-1R-GFP (human) (P43220 24-463): as above

Consider MAR709 (peptide), for which the GLP-1R internalization Emax, % of GLP-1 (7–36 amide) (loss of BRET between hGLP-1R-Rluc8 and Venus-KRAS, HEK293T) in assay [1] worked out at 51%. The compound further had a GIPR co-localization with Rab5^+ endosomes (BRET of hGIPR-Rluc8 with Venus-Rab5, HEK293T), % of the response to GIP (1–42), fatty acyl-GIP and tirzepatide in assay [2] of 66%. The compound further showed a GIPR internalization Emax, % of GIP (1–42) (loss of BRET between hGIPR-Rluc8 and Venus-KRAS, HEK293T) in assay [3] of 4%. Also, in [4], the GLP-1R co-localization with Rab5 early endosomes (BRET of hGLP-1R-Rluc8 with Venus-Rab5, HEK293T), 1 μM, % of GLP-1 (7–36 amide) is 68% and the GLP-1R co-localization with Rab7 late endosomes (BRET of hGLP-1R-Rluc8 with Venus-Rab7, HEK293T), % of GLP-1 (7–36 amide) turned out to be 62%.
As to `CCCCCCCCCCCCCCCC(=O)NCCCC[C@H](NC(=O)[C@H](CO)NC(=O)[C@@H]1CCCN1C(=O)[C@@H]1CCCN1C(=O)[C@@H]1CCCN1C(=O)[C@H](C)NC(=O)CNC(=O)[C@H](CO)NC(=O)[C@H](CO)NC(=O)[C@@H]1CCCN1C(=O)CNC(=O)CNC(=O)[C@H](C)NC(=O)[C@H](CC(C)C)NC(=O)[C@H](CC(C)C)NC(=O)[C@H](Cc1c[nH]c2ccccc12)NC(=O)[C@H](CC(N)=O)NC(=O)[C@@H](NC(=O)[C@H](Cc1ccccc1)NC(=O)[C@H](CCC(=O)O)NC(=O)C(C)(C)NC(=O)[C@H](C)NC(=O)[C@H](C)NC(=O)[C@H](CCC(N)=O)NC(=O)[C@H](CCCCN)NC(=O)[C@H](CC(=O)O)NC(=O)[C@H](CC(C)C)NC(=O)[C@H](Cc1ccc(O)cc1)NC(=O)[C@@H](NC(=O)[C@H](CO)NC(=O)[C@@H](NC(=O)[C@H](CC(=O)O)NC(=O)[C@H](CO)NC(=O)[C@@H](NC(=O)[C@H](Cc1ccccc1)NC(=O)[C@@H](NC(=O)CNC(=O)[C@H](CCC(=O)O)NC(=O)C(C)(C)NC(=O)[C@@H](N)Cc1c[nH]cn1)[C@@H](C)O)[C@@H](C)O)C(C)C)[C@@H](C)CC)C(C)C)C(N)=O` [fatty acyl-GLP-1], the EC50 in assay [5] was 423 nM; in assay [6] (HEK293T, GLP-1R, +iAUC 25 min, read-out: cAMP pEC50 (converted)), 0.363 nM; in assay [7] (setting [18]) it was 188 nM; in assay [8] (mean ± SEM, read-out: β-arr2 Recruitment pEC50 (converted)), over 1000 nM; in assay [8] (setting [18]) it was over 1000 nM; in assay [9] (setting [19]), 358 nM. For the same compound, the EC50 in assay [10] (mean ± SEM, read-out: cAMP pEC50 (converted)) was over 1000 nM; in assay [10] (read-out: cAMP EC50) it was over 1000 nM; in [11] (mean ± SEM, read-out: Gαq Recruitment pEC50 (converted)), over 1000 nM; in assay [11] (read-out: Gαq Recruitment EC50), over 1000 nM; in [12] (mean ± SEM, read-out: Receptor Internalization pEC50 (converted)), over 1000 nM; in assay [12] (setting [20]), over 1000 nM. The EC50 in [13] (setting [20]) was 490 nM; in assay [14] (mean ± SEM, read-out: Gαs Recruitment pEC50 (converted)), over 1000 nM; in assay [14] (read-out: Gαs Recruitment EC50), over 1000 nM; in assay [15] (setting [19]), over 1000 nM; in assay [15] (read-out: β-arr1 Recruitment pEC50 (converted)), over 1000 nM; in [16] it was 305 nM. Further, the Emax was found to be 98 ± 5% in assay [5] (setting [17]); 99 ± 3% in [6] (HEK-293T, HEK293T transiently expressing untagged GLP-1R, +iAUC of 25 min response, 3-parameter fit); 86 ± 3% in [7] (HEK-293T, mean ± SEM, at least 3 experiments, SEM, read-out: β-arr2 Recruitment Emax (% GLP-1)); 88 ± 4% in assay [9] (HEK-293T, mean ± SEM, at least 3 experiments, SEM, read-out: β-arr1 Recruitment Emax (% GLP-1)); 108 ± 4% in [13] (HEK-293T, mean ± SEM, at least 3 experiments, SEM, read-out: Receptor Internalization Emax (% GLP-1)); 101 ± 5% in assay [16] (setting [17]).

Source of the values: publication PMC7921015, “Spatiotemporal GLP-1 and GIP receptor signaling and trafficking/recycling dynamics induced by selected receptor mono- and dual-agonists” (Molecular Metabolism, 2021).
